Assay results: ChEMBL document CHEMBL1201862, “PubChem BioAssay data set” (2004)
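Grown in 96-well plates, cells were treated for 48 hours with each compound at five concentrations. Insufficient inhibition: endpoint recorded as highest concentration tested. GI50 marks 50% less growth.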 Active and inactive are the calls of the source. No stated cut-off is given here; in the data, active = GI50 up to about 1.1 µM and inactive = higher. Square brackets hold non-standard residues; d marks the D form. Peptide text beside a SMILES is read from it. * marks the point of attachment. Phe(4-NO2) = N[CH](Cc1ccc([N+](=O)[O-])cc1)C(=O)O; Cbz = O=C(OCc1ccccc1)*

Assays:
Assay in all cases: DTP human tumour cell line panel, 48 h
M19-MEL = test system: M19-MEL
DMS-273 = test system: DMS-273
DLD-1 = test system: DLD-1
786-0 = test system: 786-0
LXFL 529 = test system: LXFL 529
HOP-18 = test system: HOP-18
XF498 = test system: XF498
RXF 631 = test system: RXF 631
DMS-114 = test system: DMS-114

Measured: GI50

COC(=O)C(C(=O)C(=O)Nc1nnc(S)[nH]1)c1csc(-n2nc(-c3ccccc3)cc2-c2ccccc2)n1 (configuration not stated)
inactive: M19-MEL > 100 µM | DMS-273 > 100 µM | DLD-1 > 100 µM | 786-0 > 100 µM | LXFL 529 > 100 µM

N#CN=C(NCCO)NCCO
inactive: M19-MEL > 100 µM | HOP-18 45.1 µM | XF498 > 100 µM | RXF 631 > 100 µM | DMS-114 > 100 µM | DLD-1 > 100 µM | LXFL 529 > 100 µM

O=C(NC1C=Nc2ccc([N+](=O)[O-])cc2NC1=O)c1cc(Cl)cc([N+](=O)[O-])c1 (configuration not stated)
inactive: M19-MEL > 100 µM | XF498 > 100 µM | DMS-273 99.5 µM | DMS-114 19.7 µM | DLD-1 > 100 µM | LXFL 529 > 100 µM

Cc1cc(C)nc(NS(=O)(=O)c2ccc(NNC(=O)c3cccc4c(=O)c5ccccc5[nH]c34)cc2)n1
inactive: 786-0 > 100 µM

CCOC(=O)CCC(NC(=O)OCc1ccccc1)C(=O)NC(CCC(=O)OCC)C(=O)NC(CCC(=O)OCC)C(=O)NC(CCC(=O)OCC)C(=O)NC(CCC(=O)OCC)C(=O)NC(Cc1ccc([N+](=O)[O-])cc1)C(=O)NC(CCC(=O)OCC)C(=O)NC(CCC(=O)OCC)C(=O)NC(CCC(=O)OCC)C(=O)NC(CCC(=O)OCC)C(=O)NC(CCC(=O)OCC)C(=O)OCC (configuration not stated) (Cbz-E(OEt)E(OEt)E(OEt)E(OEt)E(OEt)[Phe(4-NO2)]E(OEt)E(OEt)E(OEt)E(OEt)E(OEt)-OEt; configuration not given here)
inactive: 786-0 > 50 µM

COc1ccc(/C(Cl)=C(\C=O)c2ccc(F)cc2)cc1OC
inactive: M19-MEL 21 µM | HOP-18 12.9 µM | RXF 631 19.9 µM | DMS-273 27.4 µM | DMS-114 14.4 µM | DLD-1 21.8 µM | LXFL 529 11.5 µM

CC1=C2C(O)C(C(C)C(=O)NC(C)C)CCC2(C)C=CC1=O (configuration not stated)
inactive: HOP-18 > 100 µM | XF498 > 100 µM | DMS-273 > 100 µM | DMS-114 > 100 µM | DLD-1 > 100 µM
